Assays:
[1] = target: T1, unphosphorylated VEGF-R2Δ50 (Homo sapiens, UniProt P35968, DEL940-989/E990V); assay: VEGF-R2 coupled spectrophotometric assay, unphosphorylated construct (FLVK); assay type: biochemical; settings: for inhibition at 0.05 µM: % inhibition at 50 nM compound, read-out: FLVK Ki % inh @ 50 nM
T1 construct: VEGF-R2Δ50 contains residues 806–939 and 990–1171; made in house; host or cells: baculovirus/insect cell system
From the text: This construct determines the ability of a test compound to inhibit tyrosine kinase activity. A construct (VEGF-R2Δ50) of the cytosolic domain of human vascular endothelial growth factor receptor 2 (VEGF-R2) lacking the 50 central residues of the 68 residues of the kinase insert domain was expressed in a baculovirus/insect cell system. Of the 1356 residues of full-length VEGF-R2, VEGF-R2Δ50 contains residues 806–939 and 990–1171, and also one point mutation (E99OV) within the kinase insert domain relative to wild-type VEGF-R2. Autophosphorylation of the purified construct was performed by incubation of the enzyme at a concentration of 4 μM in the presence of 3 mM ATP and 40 mM MgCl2 in 100 mM HEPES, pH 7.5, containing 5% glycerol and 5 mM DTT, at 4° C. for 2 h. […] See Parast et al., Biochemistry, 37,16788–16801 (1998).
(§1) The production of ADP from ATP that accompanies phosphoryl transfer was coupled to oxidation of NADH using phosphoenolpyruvate (PEP) and a system having pyruvate kinase (PK) and lactic dehydrogenase (LDH). The oxidation of NADH was monitored by following the decrease of absorbance at 340 nm (e340=6.22 cm^−1 mM^−1) using a Beckman DU 650 spectrophotometer. Assay conditions for phosphorylated VEGF-R2A50 (indicated as FLVK-P in the tables below) were the following: 1 mM PEP; 250 μM NADH; 50 units of LDH/mL; 20 units of PK/mL; 5 mM DTT; 5.1 mM poly(E4Y1); 1 mM ATP; and 25 mM MgCl2 in 200 mM HEPES, pH 7.5. Assay conditions for unphosphorylated VEGF-R2Δ50 (indicated as FLVK in the tables) were the following: 1 mM PEP; 250 μM NADH; 50 units of LDH/mL; 20 units of PK/mL; 5 mM DTT; […]; 3 mM ATP; and 60 mM MgCl2 and 2 mM MnCl2 in 200 mM HEPES, pH 7.5. Assays were initiated with 5 to 40 nM of enzyme. Ki values were determined by measuring enzyme activity in the presence of varying concentrations of test compounds. The data were analyzed using Enzyme Kinetic and Kaleidagraph software.

[2] = target: T2, LCK (Homo sapiens, UniProt P06239, C224D/P223M); assay: Lymphocyte-Specific Protein-Tyrosine Kinase (LCK) spectrophotometric assay; assay type: biochemical; settings: 1 μM compound; read-out: LckP* % inhibit @1 μM
T2 construct: starting from amino acid residue 223 to the end of the protein at residue 509; made in house; host or cells: insect cells
T2 sequence (P06239 223-509 P223M/C224D): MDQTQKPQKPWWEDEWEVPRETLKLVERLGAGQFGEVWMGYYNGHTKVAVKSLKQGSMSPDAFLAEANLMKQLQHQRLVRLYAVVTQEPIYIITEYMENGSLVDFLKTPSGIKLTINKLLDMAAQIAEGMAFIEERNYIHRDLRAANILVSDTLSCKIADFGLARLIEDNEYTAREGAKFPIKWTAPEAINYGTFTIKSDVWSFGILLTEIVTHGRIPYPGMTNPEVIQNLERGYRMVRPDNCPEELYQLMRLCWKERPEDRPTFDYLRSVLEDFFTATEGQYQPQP

[3] = target: T3, FGF-R1 (Homo sapiens, UniProt P11362, C488A/C584S/L457V); assay: Fibroblast Growth Factor (FGF-R) spectrophotometric assay; assay type: biochemical; settings: 1 μM compound; read-out: FGF-P % inhibit @1 μM
T3 construct: starting from the endogenous methionine residue 456 to glutamate 766; made in house; host or cells: baculovirus vector expression system
T3 sequence (P11362 456-766 L457V/C488A/C584S): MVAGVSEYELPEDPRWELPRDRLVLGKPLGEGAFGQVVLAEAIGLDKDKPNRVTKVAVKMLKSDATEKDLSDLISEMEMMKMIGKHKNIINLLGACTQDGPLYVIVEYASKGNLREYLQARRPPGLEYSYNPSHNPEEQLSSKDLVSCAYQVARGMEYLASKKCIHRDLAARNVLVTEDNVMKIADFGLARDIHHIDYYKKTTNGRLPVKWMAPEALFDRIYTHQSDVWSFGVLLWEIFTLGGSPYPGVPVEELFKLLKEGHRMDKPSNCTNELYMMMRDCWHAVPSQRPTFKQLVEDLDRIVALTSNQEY
From the text: The intracellular kinase domain of human FGF-R1 was expressed using the baculovirus vector expression system starting from the endogenous methionine residue 456 to glutamate 766, according to the residue numbering system of Mohammadi et al., Mol. Cell. Biol., 16, 977–989 (1996). In addition, the construct also has the following 3 amino acid substitutions: L457V, C488A, and C584S.
as §1
The spectrophotometric assay was carried out as described above for VEGF-R2, except for the following changes in concentration: FGF-R=50 nM, ATP=2 mM, and poly(E4Y1)=15 mM.

[4] = test system: human umbilical vein endothelial cells (HUVEC); assay: HUVEC Proliferation Assay (VEGF-stimulated); assay type: cell-based
Method: This assay determines the ability of a test compound to inhibit the growth factor-stimulated proliferation of human umbilical vein endothelial cells (“HUVEC”). HUVEC cells (passage 3–4, Clonetics, Corp.) were thawed into EGM2 culture medium (Clonetics Corp) in T75 flasks. Fresh EGM2 medium was added to the flasks 24 hours later. Four or five days later, cells were exposed to another culture medium (F12K medium supplemented with 10% fetal bovine serum (FBS), 60 μg/mL endothelial cell growth supplement (ECGS), and 0.1 mg/mL heparin). Exponentially-growing HUVEC cells were used in experiments thereafter. Ten to twelve thousand HUVEC cells were plated in 96-well dishes in 100 μl of rich, culture medium (described above). The cells were allowed to attach for 24 hours in this medium. The medium was then removed by aspiration and 105 μl of starvation media (F12K+1% FBS) was added to each well. After 24 hours, 15 μl of test agent dissolved in 1% DMSO in starvation medium or this vehicle alone was added into each treatment well; the final DMSO concentration was 0.1%. One hour later, 30 μl of VEGF (30 ng/mL) in starvation media was added to all wells except those containing untreated controls; the final VEGF concentration was 6 ng/mL. Cellular proliferation was quantified 72 hours later by MTT dye reduction, at which time cells were exposed for 4 hours MTT (Promega Corp.). Dye reduction was stopped by addition of a stop solution (Promega Corp.) and absorbance at 595λ was determined on a 96-well spectrophotometer plate reader.
IC50 values were calculated by curve-fitting the response of A^595 to various concentrations of the test agent; typically, seven concentrations separated by 0.5 log were employed, with triplicate wells at each concentration. For screening compound library plates, one or two concentrations (one well per concentration) were employed, and the % inhibition was calculated by the following formula: % inhibition=(control−test)[…](control−starvation) where
control=A^595 when VEGF is present without test agent
test=A^595 when VEGF is present with test agent
starvation=A^595 when VEGF and test agent are both absent.

[5] = Human Liver Microsome (HLM) Assay; assay type: in vitro ADME
Method: Compound metabolism in human liver microsomes was measured by LC-MS analytical assay procedures as follows. First, human liver microsomes (HLM) were thawed and diluted to 5 mg/mL with cold 100 mM potassium phosphate (KPO4) buffer. Appropriate amounts of KPO4 buffer, NADPH-regenerating solution (containing B-NADP, glucose-6-phosphate, glucose-6-phosphate dehydrogenase, and MgCl2), and HLM were preincubated in 13×100 mm glass tubes at 37 C. for 10 min. (3 tubes per test compound—triplicate). Test compound (5 µM final) was added to each tube to initiate reaction and was mixed by gentle vortexing, followed by incubation at 37° C. […] Samples were centrifuged at 4000 rpm for 20 min. to precipitate proteins and salt (Beckman Allegra 6KR, S/N ALK98DO6, #634). Supernatant was transferred to new 12×75 mm glass tubes and evaporated by Speed-Vac centrifugal vacuum evaporator. Samples were reconstituted in 200 μL 0.1% formic acid/acetonitrile (90/10) and vortexed vigorously to dissolve. The samples were then transferred to separate polypropylene microcentrifuge tubes and centrifuged at 14000×g for 10 min. (Fisher Micro 14, S/N M0017580). […]
The combined compound samples were injected into the LC-MS system, composed of a Hewlett-Packard HP 1100 diode array HPLC and a Micromass Quattro II triple quadruple mass spectrometer operating in positive electrospray SIR mode (programmed to scan specifically for the molecular ion of each test compound. Each test compound peak was integrated at each timepoint. […]

[6] = target: T4, PDGFRβ (Homo sapiens, UniProt P09619); assay: PAE-PDGFRβ Phosphorylation in PAE-PDGFRB Cells Assay; assay type: cell-based; settings: PAE cells overexpressing human PDGFRβ; read-out: PAE PDGFR autophos IC50
T4 construct: expressed in transfected cells; host or cells: porcine aorta endothelial (PAE) cells
T4 sequence (P09619 33-1106): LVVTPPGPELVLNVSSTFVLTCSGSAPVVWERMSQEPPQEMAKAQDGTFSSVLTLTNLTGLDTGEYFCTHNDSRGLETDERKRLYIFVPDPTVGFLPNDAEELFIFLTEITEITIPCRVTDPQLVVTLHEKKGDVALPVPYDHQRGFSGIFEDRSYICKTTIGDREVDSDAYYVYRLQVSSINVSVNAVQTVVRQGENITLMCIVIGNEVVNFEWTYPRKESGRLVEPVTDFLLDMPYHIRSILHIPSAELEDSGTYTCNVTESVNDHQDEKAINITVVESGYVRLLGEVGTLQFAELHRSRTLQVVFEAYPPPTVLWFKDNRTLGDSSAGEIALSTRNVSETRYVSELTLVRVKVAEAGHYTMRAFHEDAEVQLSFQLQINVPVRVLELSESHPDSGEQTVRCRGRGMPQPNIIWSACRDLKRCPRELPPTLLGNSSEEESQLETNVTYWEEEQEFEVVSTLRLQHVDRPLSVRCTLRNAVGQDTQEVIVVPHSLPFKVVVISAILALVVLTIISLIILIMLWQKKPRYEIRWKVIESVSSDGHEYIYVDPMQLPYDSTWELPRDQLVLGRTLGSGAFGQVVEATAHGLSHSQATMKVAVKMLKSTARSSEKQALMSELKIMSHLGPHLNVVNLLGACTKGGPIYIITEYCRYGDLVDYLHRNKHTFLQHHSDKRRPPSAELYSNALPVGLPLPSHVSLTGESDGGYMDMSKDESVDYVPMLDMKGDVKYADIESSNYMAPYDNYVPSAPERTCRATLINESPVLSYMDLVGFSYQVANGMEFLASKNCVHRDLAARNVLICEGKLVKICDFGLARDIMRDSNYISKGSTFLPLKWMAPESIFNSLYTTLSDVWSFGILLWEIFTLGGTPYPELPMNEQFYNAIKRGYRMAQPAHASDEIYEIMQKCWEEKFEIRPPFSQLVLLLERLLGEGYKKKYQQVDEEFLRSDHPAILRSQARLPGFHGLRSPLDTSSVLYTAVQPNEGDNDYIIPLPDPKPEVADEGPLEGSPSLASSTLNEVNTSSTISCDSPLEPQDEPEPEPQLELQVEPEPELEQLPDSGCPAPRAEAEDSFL
Method: This assay determines the ability of a test compound to inhibit the autophosphorylation of PDGFRβ in porcine aorta endothelial (PAE)-PDGFRβ cells. PAE cells that overexpress human PDGFRβ were used in this assay. The cells were cultured in Ham's F12 media supplemented with 10% fetal bovine serum (FBS) and 400 ug/ml G418. Twenty thousands cells were seeded in each well of a 96-well plate in 50 μL of growth media and allowed to attach for 6 hours at 37° C. Cells were then exposed to the starvation media (Ham's F12 media supplemented with 0.1% FBS) for 16 hours. After the starvation period was over, 10 μL of test agent in 5% DMSO in starvation media were added to the test wells and 10 μL of the vehicle (5% DMSO in starvation media) were added into the control wells. The final DMSO concentration in each well was 0.5%. Plates were incubated at 37° C. for 1 hour and the cells were then stimulated with 1 μg/mL PDGF-BB (R & D System) in the presence of 2 mM Na3VO4 for 8 minutes. The cells were washed once with 1 mm Na3VO4 in HBSS and lysed by adding 50 μL per well of lysis buffer. One hundred μL of dilution buffer were then added to each well and the diluted cell lysate was transferred to a 96-well goat ant-rabbit coated plate (Pierce), which was pre-coated with Rabbit anti Human PDGFRβ antibody (Santa Cruz). The plates were incubated at room temperature for 2 hours and washed seven times with 1% Tween 20 in PBS. HRP-PY20 (Santa Cruz) was diluted and added to the plate for a 30-minute incubation. Plates were then washed again and TMB peroxidase substrate (Kirkegaard & Perry) was added for a 10-minute incubation. One hundred μL of 0.09 N H2SO4 was added into each well of the 96-well plate to stop the reaction. Phosphorylation status was assessed by spectrophotometer reading at 450 nm. IC50 values were calculated by curve fitting using a four-parameter analysis.

[7] = test system: HUVEC; assay: bFGF Huvec; assay type: cell-based; settings: Homo sapiens

T1 sequence (P35968 with tags, fused parts or gaps DEL940-989/E990V limits assumed): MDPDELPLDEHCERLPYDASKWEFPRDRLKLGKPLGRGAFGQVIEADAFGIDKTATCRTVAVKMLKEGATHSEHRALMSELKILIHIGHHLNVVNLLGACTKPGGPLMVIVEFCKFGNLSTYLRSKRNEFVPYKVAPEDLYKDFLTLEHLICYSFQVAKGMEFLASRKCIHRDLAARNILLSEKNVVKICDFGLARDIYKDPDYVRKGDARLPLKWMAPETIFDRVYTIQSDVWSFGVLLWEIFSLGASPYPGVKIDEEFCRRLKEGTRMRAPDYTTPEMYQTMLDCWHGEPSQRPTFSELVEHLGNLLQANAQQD

CONC(=O)c1ccccc1Nc1ccc2c(/C=C/c3ccccn3)n[nH]c2c1 [Example 3(a), N-Methoxy-2-[3-((E)-2-pyridin-2-yl-vinyl)-1H-indazol-6-ylamino]-benzamide] gave an inhibition at 0.05 µM [1] of 98%, an inhibition at 1 µM [2] of 30% and an inhibition at 1 µM [3] of 99%. The IC50 [4] was 12.7 nM.

C=CCONC(=O)c1ccccc1Nc1ccc2c(/C=C/c3ccccn3)n[nH]c2c1 [Example 3(b), N-Allyloxy-2-[3-((E)-2-pyridin-2-yl-vinyl)-1H-indazol-6-ylamino]-benzamide] showed an inhibition at 0.05 µM [1] of 98%, an inhibition at 1 µM [2] of 27% and an inhibition at 1 µM [3] of 96%. For the same molecule, the IC50 [4] was 5.7 nM and the “% remaining (HLM)” value ([5]; @2 h) was 84@2 h %.

With O=C(NCc1ccccc1)c1ccccc1Nc1ccc2c(/C=C/c3ccccn3)n[nH]c2c1 [Example 3(g), N-Benzyl-2-[3-((E)-2-pyridin-2-yl-vinyl)-1H-indazol6-ylamino]-benzamide] the inhibition at 0.05 µM [1] was 95%, the inhibition at 1 µM [2] was 28% and the inhibition at 1 µM [3] was 72%. The IC50 [4] was 1.1 nM and the “% remaining (HLM)” value ([5]; @0.5 h) was 72@0.5 h %.

O=C(NCc1ccco1)c1ccccc1Nc1ccc2c(/C=C/c3ccccn3)n[nH]c2c1 [Example 3(i), N-Furan-2-ylmethyl-2-[3-((E)-2-pyridin-2-yl-vinyl)-1H-indazol-6-ylamino]-benzamide] gave an inhibition at 0.05 µM [1] of 88%, an inhibition at 1 µM [2] of 22% and an inhibition at 1 µM [3] of 45%. It also gave an IC50 [4] of 0.2 nM, an IC50 [6] of 1.9 nM and an IC50 [7] of 1000 nM.

Molecule C=C(C)CNC(=O)c1ccccc1Nc1ccc2c(/C=C/c3cc(C)cc(C)n3)n[nH]c2c1 [Example 15, 2-{3-[2-(4,6-Dimethyl-pyridin-2-yl)-vinyl]-1H-indazol-6-ylamino}-N-(2-methyl-allyl)-benzamide] has an inhibition at 0.05 µM [1] of 64%, an inhibition at 1 µM [3] of 29% and an IC50 [4] of 1.5 nM. It also gave an IC50 [6] of 12.3 nM and an IC50 [7] of 1610 nM.

Cc1cc(C)nc(/C=C/c2n[nH]c3cc(Nc4ccccc4C(=O)NCC#CC4CC4)ccc23)c1 [Example 18, N-(3-Cycloprop-2-ynyl)-2-{3-[(E)-2-(4,6-dimethyl-pyridin-2-yl)-vinyl]-1H-indazol-6-ylamino}-benzamide] gave an inhibition at 0.05 µM [1] of 94%, an inhibition at 1 µM [3] of 59% and an IC50 [7] of 1880 nM.

In the case of Cc1ccnc(/C=C/c2n[nH]c3cc(Nc4ccccc4C(=O)NCc4cc(C)nn4C)ccc23)c1 [Example 41, N-(2,5-Dimethyl-2H-pyrazol-3-ylmethyl)-2-{3-[(E)-2-(4-methyl-pyridin-2-yl)-vinyl]-1H-indazol-6-ylamino}-benzamide], the inhibition at 0.05 µM [1] is reported as 45%, the inhibition at 1 µM [3] is reported as 11% and the IC50 [4] is reported as 6.4 nM. For the same molecule, the IC50 [7] was 3780 nM.

Work on Cc1cc(CNC(=O)c2ccccc2Nc2ccc3c(/C=N/n4cccc4)n[nH]c3c2)n(C)n1 [Example 61, N-(2,5-Dimethyl-2H-pyrazol-3-ylmethyl)-2-[3-(pyrrol-1-yliminomethyl)-1H-indazol-6-ylamino]-benzamide] yielded an inhibition at 0.05 µM [1] of 65%, an inhibition at 1 µM [3] of 14% and an IC50 [4] of 6.5 nM. It also gave an IC50 [7] of 662 nM.

With Cc1cc(CNC(=O)c2ccccc2Nc2ccc3c(/C=C/c4ccccn4)n[nH]c3c2)n(C)n1 [Example 65, N-(2,5-Dimethyl-2H-pyrazol-3-ylmethyl)-2-[3-(2-pyridin-2-yl-vinyl)-1H-indazol-6-ylamino]-benzamide] the Ki ([1]; cell prints nM instead of % inhibition) was 3.11 nM, the IC50 [4] was 3.4 nM and the “% remaining (HLM)” value ([5]; @0.5 h) was 86@0.5 h %. For the same molecule, the IC50 [6] was 5.8 nM.

From patent publication US7053107B2, “Indazole compounds and pharmaceutical compositions for inhibiting protein kinases, and methods for their use” (Agouron Pharmaceuticals, Inc., priority 2002, dated 2006)
